The values that follow come from PubChem BioAssay AID1996.

Molecules are shown by their SMILES. Converted amounts (≈) assume the structure as drawn.

For the data set the following is noted: buffer; pH 7.4; 200.0 µM.
As a reminder, the kinetic solubility is solubility judged after dilution from a stock solution rather than from solid. `COc1ccccc1CCC(=O)Nc1nccs1` showed a solubility (kinetic) of 8.6 µg/mL (≈ 32.8 µM).
As for `Cc1cc(C)nc(NC(=O)c2ccc(Br)cc2)n1`, the figure is over 45.9 µg/mL; as for `O=C(CN1C(=O)C2CC=CCC2C1=O)NC1CCCCC1` (stereo unspecified), 42.5 µg/mL (≈ 146 µM); as for `CN(C(=O)CSc1cc(Cl)ccc1Cl)C1CCS(=O)(=O)C1` (stereo unspecified), 53.7 µg/mL (≈ 146 µM).
Take `Cc1cc(C)c(C)c(S(=O)(=O)N2CCSCC2)c1C`: the solubility (kinetic) was under 0.6 µg/mL.
As for `CC(=O)Nc1ccc(NC(=O)c2cc[n+]([O-])cc2)cc1`, the figure is over 40.7 µg/mL; as for `O=C(O)CC(CC(=O)Nc1ccc(C(=O)O)cc1)c1ccccc1` (stereo unspecified), over 49.1 µg/mL; as for `Nc1nnc(SCC(=O)c2cccc([N+](=O)[O-])c2)s1`, over 44.4 µg/mL.
Compound `O=C(OCC(=O)N1CCCC1)c1c(Cl)cccc1Cl` showed a solubility (kinetic) of 39.6 µg/mL (≈ 131 µM).
For the compound `O=C(CCCn1cnc2ccccc2c1=O)Nc1ccccc1F`, the kinetic solubility was determined as 20.2 µg/mL (≈ 62.1 µM).
As for `C#CCOC(=O)C[N+](C)(C)CC=C.[Cl-]`, the figure is over 32.7 µg/mL; as for `Cc1ccsc1CNS(=O)(=O)c1ccc(F)cc1`, 30 µg/mL (≈ 105 µM); as for `CC(=O)N1CCOCCOCCN(C(C)=O)CCOCC1`, over 45.4 µg/mL.
Compound `C=CCOc1cccc(C2NC(=O)c3ccccc3O2)c1` (stereo unspecified) had a kinetic solubility of 3 µg/mL (≈ 10.7 µM).
As for `Cc1ccc(N2C(=O)SC(Cc3ccccc3)C2=O)cc1` (stereo unspecified), the figure is 0.8 µg/mL (≈ 2.69 µM); as for `CN(C)c1nc(C#N)nc(N(C)C)n1`, 22.3 µg/mL (≈ 116 µM).
In turn, `O=C(CN1c2cccc3cccc(c23)S1(=O)=O)NCc1ccc(F)cc1` returned a solubility (kinetic) of 27.4 µg/mL (≈ 74 µM).
As for `Cc1csc(NC(=O)C2CSC3(C)CCC(=O)N23)n1` (stereo unspecified), the figure is over 44.6 µg/mL.
Then `C=CCNc1nc(N)c([N+](=O)[O-])c(N2CCCCCC2)n1`, with 40.4 µg/mL (≈ 138 µM).
For the compound `Cl.O=C(CN1CCCCC1)c1ccc(F)cc1`, the solubility (kinetic) is over 38.7 µg/mL.
Then `CCC1C(=O)C(CC)C(c2ccccc2)NC1c1ccccc1` (stereo unspecified), with 4.3 µg/mL (≈ 14 µM).
`O=C(CNC(c1ccccc1)c1ccccc1)Nc1ccccc1F` showed a solubility (kinetic) of under 0.4 µg/mL.
As for `CCN(CC)CCC(C)OC(=O)c1ccc(O)cc1O.Cl` (stereo unspecified), the figure is over 47.7 µg/mL; as for `COc1ccccc1N1CCN(CC(O)c2c(C)[nH]c3ccccc23)CC1` (stereo unspecified), over 54.8 µg/mL; as for `Cc1n[nH]c(=S)n1-c1ccc(Cl)cc1`, over 33.9 µg/mL.
Then `COC(Cn1cc(C)c(=O)[nH]c1=O)OC`, with 30.3 µg/mL (≈ 141 µM); and `CCc1ccccc1NC(=O)c1ccccc1N1C(=O)C2C3C=CC(C3)C2C1=O` (stereo unspecified), with 43.4 µg/mL (≈ 112 µM).
Regarding `CN(c1ccc(C(=O)N2CCOCC2)cc1)S(=O)(=O)c1cccs1`, the kinetic solubility stood at 46.9 µg/mL (≈ 128 µM).
With `COc1cc(NC(=O)COC(=O)c2cc(S(=O)(=O)N3CCOCC3)ccc2F)cc(OC)c1`, the solubility (kinetic) worked out at 34.2 µg/mL (≈ 70.9 µM).
`CCc1ccc(NC(=O)COc2ccc3c(c2)OCO3)cc1`: the kinetic solubility came to 4.8 µg/mL (≈ 16 µM).
As for `COc1ccc2[nH]c3c(c2c1)CC(C)NC3=O` (stereo unspecified), the solubility (kinetic) was 33.3 µg/mL (≈ 145 µM).
In turn, `O=C(CSCc1ccc(Cl)cc1Cl)Nc1ccc(O)cc1C(=O)O` had a kinetic solubility of over 57.9 µg/mL.
Regarding `CCn1c(SCC#N)nc2ccccc2c1=O`, the solubility (kinetic) is over 36.8 µg/mL.
Then `COc1ccc(CCNC(=O)Cc2ccc(Cl)cc2)cc1OC`, with over 50.1 µg/mL; and `O=C1CN=C(c2ccccc2)c2c(sc3c2CCCC3)N1`, with 36.3 µg/mL (≈ 122 µM); and `CC1CCCN(CC(=O)N2c3ccccc3Sc3ccccc32)C1` (stereo unspecified), with 31.7 µg/mL (≈ 93.7 µM).
`CCCCCC1CC(CC(=O)Nc2ccc([N+](=O)[O-])cc2)OC1=O` (stereo unspecified) returned a kinetic solubility of 0.5 µg/mL (≈ 1.5 µM).
Turning to `O=S(=O)(Cc1ccccc1Cl)NCCc1ccc(F)cc1`, the kinetic solubility is over 49.2 µg/mL.
Turning to `CNC(=S)N(Cc1ccccc1)Cc1cccnc1`, the kinetic solubility is 39 µg/mL (≈ 144 µM).
Take `CCCn1c(C(O)c2cc(OC)c(OC)c(OC)c2)nc2ccccc21` (stereo unspecified): the kinetic solubility worked out at 49.3 µg/mL (≈ 138 µM).
As for `Cc1onc(-c2ccccc2)c1C(=O)NN1CCOCC1`, the figure is over 43.1 µg/mL; as for `N#Cc1c(-c2ccccc2)nc(-c2cccnc2)[nH]c1=O`, 40.2 µg/mL (≈ 147 µM); as for `COc1ccc(S(=O)(=O)Nc2cc3[nH]c(=O)oc3cc2C)cc1`, over 50.2 µg/mL.
Then `O=C1c2ccccc2C(=O)N1S(=O)(=O)c1ccccc1`, with over 43.1 µg/mL; and `Nc1nc2cc(S(=O)(=O)N3CCOCC3)ccc2o1`, with over 42.5 µg/mL; and `CN1C(=O)/C(=C\c2cccc(OCc3ccccc3)c2)SC1=S`, with under 0.7 µg/mL.
As for `C/C=C/c1ccc(OCc2cc(=O)n3cc(C)ccc3n2)c(OC)c1`, the figure is 9.1 µg/mL (≈ 27.1 µM).
`O=C(c1ccc2c(c1)OCO2)N1CCc2ccccc21` showed a kinetic solubility of 34.9 µg/mL (≈ 131 µM).
As for `CC(=O)c1ccccc1NC(=O)c1ccc(OCc2c(C)noc2C)cc1`, the figure is 2.6 µg/mL (≈ 7.13 µM).
For `CC(C)(C)n1cnc2cc(NC(=O)c3ccc(Cl)cc3)ccc21`, the solubility (kinetic) amounted to 33.4 µg/mL (≈ 102 µM).
Then `Cc1ccc(CCC(=O)Nc2ccc(N(C)C)cc2)o1`, with 17.5 µg/mL (≈ 64.3 µM); and `CC(C)(C)OC(=O)CN1C(=O)NC2(CCCc3ccccc32)C1=O` (stereo unspecified), with over 49.6 µg/mL; and `COc1ccc(NS(=O)(=O)c2ccc3oc(=O)ccc3c2)cc1`, with over 49.7 µg/mL.
For `CCCc1nc2c(sc3nc4c(cc32)COC(C)(C)C4)c(=O)o1`, the solubility (kinetic) is 24.1 µg/mL (≈ 72.9 µM).
For `Cc1ccc(SCC(=O)NCCc2ccc(F)cc2)cc1`, the kinetic solubility is 13.6 µg/mL (≈ 44.8 µM).
Then `C=CCNC(=O)COc1c(C)ccc(C)c1C`, with over 35 µg/mL.
Then `Cc1ccc(NS(=O)(=O)c2c(C)noc2C)cc1`, with over 39.9 µg/mL; and `CCOC(=O)C(C(=O)N(C)Cc1ccccc1)C1CCCCC1` (stereo unspecified), with 41.8 µg/mL (≈ 132 µM).
Take `Cc1ccc(S(=O)(=O)CC(=O)Nc2ccc(F)c(F)c2F)cc1`: the kinetic solubility was determined as 4.8 µg/mL (≈ 14 µM).
As for `NC(=O)C1CCN(C(=O)CNC(=O)c2ccc(F)cc2)CC1`, the figure is over 46.1 µg/mL; as for `CC1CN(Cc2cnc(Cl)s2)CC(C)O1` (stereo unspecified), 27.9 µg/mL (≈ 113 µM).
As for `CCCN1CNC(=S)N(c2cccc(C)c2)C1`, the figure is 37.2 µg/mL (≈ 149 µM).
Then `CN1CCN(c2cc(C(F)(F)F)nc3ccc(F)cc23)CC1`, with 43.5 µg/mL (≈ 139 µM); and `Cn1c(=O)c(C(=O)NCc2ccc(Cl)cc2)c(O)c2ccccc21`, with under 0.4 µg/mL; and `Cc1ccc(NC(=O)c2cc(CC(C)C)nc3ccccc23)cc1`, with 0.6 µg/mL (≈ 1.88 µM).
Compound `CC(C)c1ccc(NC(=O)NCc2ccccn2)cc1` returned a kinetic solubility of over 40.4 µg/mL.
Then `Cc1nc(N(C)C)c2sc(=S)n(Cc3ccccc3)c2n1`, with under 0.2 µg/mL; and `Cc1cccc2c(SCC(N)=O)nc(-c3ccccc3)nc12`, with under 0.2 µg/mL; and `CCOC(=O)N1CCN(C/C(Cl)=C/c2ccccc2)CC1`, with 29.8 µg/mL (≈ 96.5 µM).
Then `CNC(=O)c1cc(C(=O)c2ccccc2Br)c[nH]1`, with over 46.1 µg/mL; and `CN(c1ccc(OCC(=O)Nc2ccccc2C(=O)O)cc1)S(=O)(=O)c1ccc(Cl)cc1`, with over 71.2 µg/mL.
`O=c1c2ccccc2[nH]c(=S)n1CCN1CCCCC1`: the solubility (kinetic) was over 43.4 µg/mL.
Then `COc1ccc(N2CCN(C(CNC(=O)C(C)(C)C)c3ccco3)CC2)cc1` (stereo unspecified), with 54.8 µg/mL (≈ 142 µM); and `N#CCCN(Cc1cccs1)C(=O)c1ccc(Cl)cc1`, with over 45.7 µg/mL; and `CCCCC(=O)Nc1cnc(NC(=O)c2cccs2)cc1C`, with over 47.6 µg/mL.
Then `CC(C)Oc1nc(-c2ccccc2Cl)nc2ccccc12`, with 0.4 µg/mL (≈ 1.34 µM); and `CC(=O)c1cccc(NC(=O)c2sc(Cl)nc2C)c1`, with over 44.2 µg/mL; and `COc1ccc2[nH]cc(C(=O)CN3CC(C)CC(C)C3)c2c1` (stereo unspecified), with over 45.1 µg/mL.
In turn, `O=C(NCCNC(=O)c1cc(Cl)ccc1Cl)c1ccccn1` gave a kinetic solubility of over 50.7 µg/mL.
For the compound `COc1ccc(/C=C/C(=O)NCc2ccccn2)cc1OC`, the solubility (kinetic) was over 44.8 µg/mL.
As for `COc1ccc(-n2nc(C(=O)N(C)C)nc2-c2ccccc2)cc1`, the figure is over 48.4 µg/mL; as for `Cc1ccc2c(c1)C(c1ccccc1)=NCC(=O)N2`, over 37.5 µg/mL; as for `Cn1ccnc1SCC(=O)c1ccc2ccccc2c1`, 35.8 µg/mL (≈ 127 µM).
As for `CN1CCN(CCCNC(=O)CN2C(=O)COc3ccccc32)CC1`, the figure is 37.6 µg/mL (≈ 109 µM).
With `COc1ccc(Cc2nc(-c3cccnc3)no2)cc1OC`, the solubility (kinetic) was found to be 41 µg/mL (≈ 138 µM).
Then `O=C1Nc2ccccc2N=C(c2ccccc2)c2ccccc21`, with 0.9 µg/mL (≈ 3.02 µM); and `O=C(/C=C/Nc1ccc(F)cc1F)c1ccc(Br)cc1`, with under 0.7 µg/mL.
In turn, `O=C(Cc1ccc(Cl)cc1)N1CCOCC1` gave a kinetic solubility of over 36 µg/mL.
As for `O=C(Cn1cnc2ccccc21)c1ccc(Cl)cc1`, the figure is 28.9 µg/mL (≈ 107 µM); as for `COC(=O)C1CCN(c2ccc([N+](=O)[O-])cc2[N+](=O)[O-])CC1`, over 46.4 µg/mL; as for `O=S(=O)(CCN1CCSCC1)c1ccccc1`, 34.7 µg/mL (≈ 128 µM).
The compound `Cc1cc(SCC(=O)c2ccccc2)nc(=O)[nH]1` showed a solubility (kinetic) of 16.7 µg/mL (≈ 64.2 µM).
Then `Nc1cccnc1Sc1ccccc1`, with 28 µg/mL (≈ 138 µM).
As for `O/N=C/c1cc(Br)cs1`, the figure is 16.9 µg/mL (≈ 82 µM); as for `N#Cc1ccc(N2CCOCC2)nc1`, over 28.4 µg/mL; as for `CC(C)c1ccc([N+](=O)[O-])cc1S(=O)(=O)N1CCN(C)CC1`, over 49.1 µg/mL.
Then `Nc1c(C(=O)N2CCOCC2)sc2nc3c(cc12)CCC3`, with over 45.5 µg/mL; and `O=C(CN1C(=O)COc2ccccc21)NCCCN1CCCC1`, with over 47.6 µg/mL; and `C=CCNC(=O)c1cc(-c2ccncc2)nc2c(C)cc(C)cc12`, with 2 µg/mL (≈ 6.3 µM).
Compound `O=C(Nc1cccc(Cl)c1)c1cnccn1` came in with a kinetic solubility of 26.5 µg/mL (≈ 113 µM).
Then `O=C(NCCN1CCOCC1)c1cc(-c2cccc(O)c2)on1`, with over 47.6 µg/mL; and `COc1ccccc1CNC(=O)CCCNC(=O)c1ccc(Cl)cc1`, with 20.6 µg/mL (≈ 57.1 µM); and `O=C(Cn1cc(C(F)(F)F)ccc1=O)N1CCc2ccccc21`, with 25.2 µg/mL (≈ 78.2 µM).
`Cc1cc([N+](=O)[O-])nn1CC(=O)N1CCN(Cc2ccccc2)CC1` came in with a solubility (kinetic) of over 51.5 µg/mL.
Then `O=C(O)CCCN1C(=O)c2ccccc2Sc2ncccc21`, with over 47.2 µg/mL.
Consider `Nc1ccc(S(=O)(=O)Nc2ccc(C(=O)c3ccccc3)cc2)cc1`, for which the solubility (kinetic) came out at 9.4 µg/mL (≈ 26.7 µM).
